Test results: patent US20220202696A1, “AGENT FOR PROMOTING COLLAGEN PRODUCTION, MEDICAMENT, COSMETIC, AND METHOD FOR MANUFACTURING AGENT FOR PROMOTING COLLAGEN PRODUCTION” (Murata Manufacturing Co., Ltd., priority 2019, published 2022)

Test system: Normal human dermal fibroblasts
Experiment: Type I collagen production in aging induction-treated fibroblasts (ELISA)
Assay type: cell-based
Details: positive control at 25 μmol/L, 48 hours culture, aging induction-treated cells, ELISA of medium
Experimental: Normal human dermal fibroblasts were maintained using a DMEM medium (+5% FBS) in a culture vessel to confluence. […] After this procedure was repeated once daily for 4 days, the cells were further cultured in DMEM (10% FBS) for 3 days, and the cultured cells were obtained and used as aging induction-treated cells. The aging induction of the cells was confirmed by senescence-associated beta-galactosidase (SA-β-Gal, an aging marker) staining. The aging induction-treated cells were seeded in 48-well plate at a cell density of 5.0×10^4 cells/well using a DMEM medium (+5% FBS). […] Then, the cells were cultured for 48 hours, thereafter the medium was collected, and the amount of type I collagen in the medium was quantified by an ELISA method (direct ELISA using an anti-Human Collagen Type I antibody (Rabbit)).

O=C1O[C@H]([C@@H](O)CO)C(O)=C1O [vitamin C]
production of type I collagen: increased
